Activity, solubility and MIC data for three compounds are collected here from ChEMBL document CHEMBL4402571, “Methylation of Daptomycin Leading to the Discovery of Kynomycin, a Cyclic Lipodepsipeptide Active against Resistant Pathogens” (J Med Chem, 2020).

Series [1] concerns Staphylococcus aureus. In words: Induction of cell membrane integrity disruption in Staphylococcus aureus ATCC 29213 at 8 ug/ml measured after 0.5 to 2 hrs by SYTOX green staining based fluorescence assay. The format is organism-based.
Series [2] concerns Staphylococcus aureus. In words: Antibacterial activity against daptomycin-resistant Staphylococcus aureus SA11 infected in NIH mouse model of neutropenic thigh infection assessed reduction in bacterial level in thigh at 50 mg/kg, sc administered at 2 and 12 hrs post infection and measured at 48 to 60 hrs post-infection. In kind it is functional, organism-based.
Series [3] concerns Enterococcus faecalis. Description: Antibacterial activity against Enterococcus faecalis ATCC 29212 at sub-MIC after 7 serial passages by broth microdilution method. The format is functional, organism-based. (Broth dilution looks for growth in wells or tubes with falling amounts of substance.)
Series [4] concerns Enterococcus faecalis. In words: Antibacterial activity against daptomycin-resistant Enterococcus faecalis T1027 infected in NIH mouse model of neutropenic thigh infection assessed reduction in bacterial level in thigh at 50 mg/kg, sc administered at 2 and 12 hrs post infection and measured at 48 to 60 hrs post-infection. In kind it is functional, organism-based.
Series [5] concerns Staphylococcus aureus. Description: Bactericidal activity against Staphylococcus aureus ATCC 29213 assessed as reduction in bacterial load at 4 to 8 ug/ml preincubated for up to 24 hrs followed by subculturing on LB agar plate by time-kill assay. The format is functional, organism-based.
Series [6] concerns Enterococcus faecalis. Description: Induction of cell membrane integrity disruption in Enterococcus faecalis ATCC 29212 at 16 ug/ml measured after 1 hr by SYTOX green staining based confocal laser scanning microscopic analysis. The format is organism-based.
The subject of series [7] is Staphylococcus aureus. In words: Antibacterial activity against daptomycin-resistant Staphylococcus aureus SA11 infected in Galleria mellonella larvae assessed as increase in larvae survival at 50 mg/kg measured up to 72 hrs post-infection. In kind it is functional, organism-based.
In series [8] the test system is Enterococcus faecalis. Description: Induction of cell membrane integrity disruption in Enterococcus faecalis ATCC 29212 at 16 ug/ml measured after 0.5 to 2 hrs by SYTOX green staining based fluorescence assay. In kind it is organism-based.
Series [9] has as its system Staphylococcus aureus. In words: Antibacterial activity against Staphylococcus aureus USA300 infected in Balb/c mouse model of sepsis assessed as bacterial eradication in kidney at 1.25 mg/kg, sc administered twice daily for 3 days starting from 1 hr post-infection followed by subculturing on LB agar plate and measured after overnight incubation. The format is functional, organism-based.

The test system of series [10] is Staphylococcus aureus. In words: Antibacterial activity against methicillin-resistant Staphylococcus aureus ATCC 43300 infected in Galleria mellonella larvae assessed as increase in larvae survival at 50 mg/kg measured up to 72 hrs post-infection. In kind it is functional, organism-based.
Series [11] concerns Enterococcus faecalis. In words: Antibacterial activity against Enterococcus faecalis T1027 infected in Galleria mellonella larvae assessed as increase in larvae survival at 50 mg/kg measured 96 hrs post-infection. In kind it is functional, organism-based.
In series [12] the test system is Enterococcus faecalis. In words: Antibacterial activity against Enterococcus faecalis ZS129 infected in Galleria mellonella larvae assessed as increase in larvae survival at 50 mg/kg measured up to 72 hrs post-infection. In kind it is functional, organism-based.
The test system of series [13] is Enterococcus faecalis. Description: Bactericidal activity against Enterococcus faecalis ATCC 29212 assessed as reduction in bacterial load at 16 ug/ml preincubated for up to 24 hrs followed by subculturing on LB agar plate by time-kill assay. The format is functional, organism-based.
The subject of series [14] is HEK293. In words: Cytotoxicity against HEK293 cells assessed as reduction in cell viability at 40 mg/ml measured after 24 hrs by MTT assay. The following applies: human, hek293, 24 h. The format is cell-based. (In general: Formazan colour is commonly taken as a measure of viable cells.)
Series [15] deals with Erythrocyte. Description: Hemolytic activity against rat RBC at 320 ug/ml measured after 1 hr. In kind it is ADME, cell-based.
Series [16] can be described thus: Aqueous solubility of the compound in 0.9% NaCl at >= 100 measured after 15 mins. In kind it is physicochemical. The following applies: buffer, 0.25 h.
Series [17] deals with HEK293. In words: Cytotoxicity against HEK293 cells assessed as reduction in cell viability at 80 mg/ml measured after 24 hrs by MTT assay. In kind it is cell-based. The following applies: human, hek293, 24 h.
Series [18] concerns Staphylococcus aureus. Description: Antibacterial activity against methicillin-resistant Staphylococcus aureus SA11 by broth microdilution method. In kind it is functional.
Series [19] deals with Staphylococcus aureus. Description: Antibacterial activity against methicillin-resistant Staphylococcus aureus SA86 by broth microdilution method. In kind it is functional.
In series [20] the test system is Enterococcus faecalis. Description: Antibacterial activity against Enterococcus faecalis ATCC 29212 by broth microdilution method. In kind it is functional.
Series [21] concerns Staphylococcus aureus. Description: Antibacterial activity against methicillin-resistant Staphylococcus aureus SA88 by broth microdilution method. The format is functional.
The test system of series [22] is Staphylococcus aureus. In words: Antibacterial activity against Staphylococcus aureus ATCC 29213 by broth microdilution method. The format is functional.
For series [23], the system named is Staphylococcus aureus. In words: Antibacterial activity against methicillin-resistant Staphylococcus aureus SA14 by broth microdilution method. In kind it is functional.
Series [24] deals with Enterococcus faecium. Description: Antibacterial activity against Enterococcus faecium ET6 by broth microdilution method. The format is functional.
The test system of series [25] is Enterococcus faecium. Description: Antibacterial activity against Enterococcus faecium ET60 by broth microdilution method. The format is functional.

≈ marks a conversion by molar mass, not a printed value. Calls of active or inactive are those of the source. The calls are words filed in the database; no cut-off is given here.

Regarding `CCCCCCCCCC(=O)N[C@@H](Cc1c[nH]c2ccccc12)C(=O)N[C@@H](CC(N)=O)C(=O)N[C@@H](CC(=O)O)C(=O)N[C@@H]1C(=O)NCC(=O)N[C@@H](CCCN)C(=O)N[C@H](CC(=O)O)C(=O)N[C@H](C)C(=O)N[C@@H](CC(=O)O)C(=O)NCC(=O)N[C@H](CO)C(=O)N[C@@H]([C@@H](C)CC(=O)O)C(=O)N[C@@H](CC(=O)c2ccccc2N)C(=O)O[C@@H]1C`, the outcome in [1], in [2], in [4], in series [5], in series [6] and in series [7] was Active. For the same compound, the outcome in series [8], in [10], in series [11], in series [12] and in series [13] was Active. Moreover, the result in series [3] and in series [9] was inactive.
Consider `CCCCCCCCCC(=O)N[C@@H](Cc1c[nH]c2ccccc12)C(=O)N[C@H](CC(N)=O)C(=O)N[C@@H](CC(=O)O)C(=O)N[C@@H]1C(=O)NCC(=O)N[C@@H](CCCN)C(=O)N[C@@H](CC(=O)O)C(=O)N[C@H](C)C(=O)N[C@@H](CC(=O)O)C(=O)NCC(=O)N[C@H](CO)C(=O)N[C@@H]([C@H](C)CC(=O)O)C(=O)N[C@@H](CC(=O)c2ccccc2NC)C(=O)O[C@@H]1C`, for which the figures for the Activity entry in [14], in series [15] and in series [17] were “Non-Toxic”, “Non-Toxic” and “Toxic”, respectively. In addition, the solubility result in series [16] was “Soluble”.
As a reminder, the MIC is the lowest concentration found to suppress growth. The low end stands for greater potency, the high end for weaker potency. Take `CCCCCCCCCC(=O)N[C@@H](Cc1cn(C)c2ccccc12)C(=O)N[C@@H](CC(N)=O)C(=O)N[C@@H](CC(=O)O)C(=O)N[C@@H]1C(=O)NCC(=O)N[C@@H](CCCN)C(=O)N[C@@H](CC(=O)O)C(=O)N[C@H](C)C(=O)N[C@@H](CC(=O)O)C(=O)NCC(=O)N[C@H](CO)C(=O)N[C@@H]([C@H](C)CC(=O)O)C(=O)N[C@@H](CC(=O)c2ccccc2N)C(=O)O[C@@H]1C`: the minimum inhibitory concentration (MIC) stood at 2 µg/mL (≈ 1.22 µM) in series [18]; 0.5 µg/mL (≈ 0.306 µM) in series [19]; 2 µg/mL (≈ 1.22 µM) in [20]; 0.25 µg/mL (≈ 0.153 µM) in series [21]; 0.5 µg/mL (≈ 0.306 µM) in series [22]; 0.5 µg/mL (≈ 0.306 µM) in [23]. In addition, the MIC in [24] and in series [25] was 1 µg/mL (≈ 0.612 µM) throughout.
